Results published in patent publication US10463709B2, “Short synthetic peptide for treating diseases and/or conditions related to angiogenesis” (MacKay Memorial Hospital, priority 2015, dated 2019).
Square brackets hold non-standard residues; d marks the D form. Ends that are not written are not given here.

Columns and labels:
[1] = system: STZ-induced diabetic mice; assay: Vascular abnormalities in the retina of diabetic mice; format: in vivo; conditions: for Fluorescence Intensity (Fold): leaked FITC-BSA in entire retina, vs vehicle
Procedure: Diabetic mice were generated by a single intraperitoneal injection of streptozotocin (STZ) (150 mg/kg body weight). STZ was freshly prepared in 0.1 M citrate buffer (pH 4.5). After injection, mice were supplied with 10% sucrose overnight to prevent sudden hypoglycemic shock. After 1 week, mice with non-fasting blood glucose levels >500 mg/dl were defined as diabetic and used for the experiments. DMSO Vehicle or the present synthetic peptide (10 mg/kg; n≥3 per peptide) were administered by intraperitoneal injections twice a day. After treatment for 24 h, mice were intraperitoneal injected with 100 mg/kg of BSA-FITC for further 30 min.
To determine vascular lesions (hemorrhaging areas) in retina, the animals were euthanized by CO2 inhalation, and the eyes were enucleated and fixed by 2% paraformaldehyde for 2 hr and flat-mounted onto glass slides to obtain optical sections by an epifluorescence microscopy. Vascular lesions in the retina was scored in all four retinal quadrants of flat mounts by using a 20× objective. Six microscopic fields were sampled in each quadrant in both the central and peripheral retina, and data were presented as the average number of lesions/retina.
Vascular FITC-BSA leakage was determined by a fluorescence spectrofluorometer based on standard curves of FITC-BSA at excitation and emission wavelengths of 488 and 535 nm, respectively, and then normalized to a non-injected control retina. For this analysis, retinas were dissected from treated and untreated diabetic mice after BSA-FITC injections, and each was solubilized in 300 μL ice-cold PBS.
Diabetic retinopathy is characterized by blood-retinal barrier (BRB) breakdown and neurotoxicity. To evaluate the possible beneficial effect of the present synthetic peptides on diabetic retinopathy, STZ-induced diabetic mice were intraperitoneally injected with 7-mer peptide, DMSO vehicle or the control peptide (SEQ ID NO: 22). The retinal vascular abnormality was then monitored by detecting the extravasation of BSA-fluorescein. Results are depicted in FIG. 11.

RPMI8226 cells = assay: MTT assay, VEGF-induced proliferation of RPMI8226 cells; format: cell-based; conditions: for effect on VEGF-induced proliferation of RPMI8226 cells: VEGF 50 ng/ml, 25 μM peptide, 24 hrs, MTT; for biological activity of the analogue relative to the 7-mer (summary statement of the description): summary of Example 1 findings
Procedure: The multiple myeloma line RPMI8226 was cultivated in complex medium (RPMI1640) supplemented with 10% (vol/vol) heat-inactivated fetal calf serum (Invitrogen), 50 μg/mL penicillin, 50 μg/mL streptomycin, and 2 mM L-glutamine at 37° C. in a 5% CO2 atmosphere. RPMI8226 cells were cultured in serum-free RPMI1640 medium for 24 hrs, and then cells were seeded in 48-well culture plates (3×10^5 cells/well) and continued to culture in 0.5 ml fresh serum-free RPMI1640 medium containing 25 μM peptide for another 24 hrs. The cell viability was determined by the MTT assay. Briefly, 50 μL of MTT stock solution (50 μL) (5 mg MTT dissolved in 1 ml of sterile PBS) was added to each culture well. In addition, 50 μL of the MTT stock solution was added in 500 μL of medium as the negative control. The culture plate was incubated at 37° C. for 4 hours. Aliquots (450 μl) from each sample were taken to a new well of 48-well culture plate, adding 100 μL DMSO, mixing thoroughly using the pipette and reacted at 37° C. for 20 min and read absorbance at 570 nm. These synthesized peptides were then subject to MTT assay, in which vascular endothelial growth factor (VEGF) was used as a stimulant to induce cell proliferation. Results are depicted in FIGS. 1 to 4.

HUVECs [2] = assay: VEGF-induced HUVEC proliferation assay; format: cell-based; conditions: VEGF (10 ng/mL) + 25 μM peptide; vs untreated HUVECs
Procedure: HUVECs (1×10^5 cells per well of 6-well plate) were grown in Medium 200 with Low Serum Growth Supplement (LSGS Kit, supplement contains 1.9% FBS, 3 ng/ml bFGF, 10 μg/ml heparin, 1 μg/ml hydrocortisone, and 10 ng/ml EGF). Culture plates were coated with 2% gelatin. Cells (passages 4-8) were cultured at 37° C. in a humidified atmosphere of 5% CO2. […]
HUVECs (1×10^5 cells per well of 6-well plate) in Medium 200 supplemented with LSGS Kit were allowed to grow onto 6-well plates coated with 2% gelatin for 24 hours at 37° C. in 5% CO2. The culture medium was then replaced with serum free Medium 200 overnight. […] Then, cells were harvested by trypsin-EDTA and counted using a hemocytometer.

HUVECs [3] = assay: Endothelial cell capillary-like tube formation assay; format: cell-based; conditions: VEGF (10 ng/mL) + 25 μM peptide; vs untreated HUVECs
Procedure: To examine the effect of the present synthetic peptide on in vitro angiogenesis, growth factor-reduced matrigel was pipetted into pre-chilled 24-well plates (150 μl matrigel per well) and polymerized for 45 min at 37° C. […] In this experiment, images were captured using a Cannon camera on Zeiss inverted microscope with magnification ×40 and tube length was quantified using Image analysis software (Image-Pro Plus). The control peptide as used in the present invention has the sequence of DLYRVR (SEQ ID NO: 10).

rat aortic ring = assay: Rat aortic ring assay (ex vivo microvessel sprouting); set-up: species or system Sprague Dawley rats; conditions: beta-FGF induced; peptide 50 μM
Procedure: Thoracic aortas were removed from euthanized 10-week-old male Sprague Dawley rats, and gently stripped off periaortic fibroadipose tissue. Aortas were sectioned to about 2-mm length rings, which were embedded in Matrigel. To induce angiogenesis, human recombinant bFGF (50 ng/ml) or bFGF plus the peptide (50 μM) was added in Matrigel. Gel (200 μl) containing an aortic ring was polymerized in 12-well plates (37° C. for 30 min) and then incubated with 1 ml of Medium 200 supplemented with 100 units/ml penicillin, and […] streptomycin and 2% FBS at 37 ° C. The cultures were propagated at 37 ° C. in a humidified incubator for up to 7 days. Sprouts were recorded using an inverted microscope platform (Leica DM16000B) with bright-field optics. Each ring was scored by three independent observers on a scale 0-4 depending on the degree of sprouting vessel being observed (0=no sprouting, 4=profuse sprouting). The experiment was repeated in triplicates.

B16-F10 melanoma cells = assay: Experimental pulmonary metastasis in mice; format: in vivo, C57BL/6 mice; conditions: for effect on number of colonies on the surface of the lung / in vivo metastasis / No. lung colonies: 10 mg/Kg intraperitoneal every 2 days; for No. lung colonies: day 8, n = 5; for Inhibition (%): lung colonies vs vehicle, 10 mg/Kg
Procedure: 2×10^5 B16-F10 cells were suspended in 100 μl PBS and checked for viability using trypan blue staining (>95%). The B16-F10 cells were then injected into the tail vein of the 6-week-old female C57BL/6 mice; while vehicle (DMSO), the present synthetic peptide or the control peptide (10 mg/kg) were administered by intraperitoneal injections every 2 days after the B16-F10 cell injection. Five mice were used for each group. On day 8 after inoculation of cells, the lungs were removed, and the number of visible colonies on the surface of the lungs were counted using a dissecting microscope.
Metastasis is the foremost cause of death from cancer. In this example, to investigate the efficacy of the present synthetic peptide on the metastasis of cancer cells, B16-F10 cells were injected into the tail vein of a mouse, the animal was then treated with the present synthetic peptide (7-mer or 7-mer DD, 10 mg/Kg) by intraperitoneal injections every 2 days. Upon completion of the experiment, the lungs were then removed and the tumor colonies visible to the eyes were then counted. Results are depicted in FIG. 10.

Row | Substance | extravasation of FITC-BSA [1] | Fluorescence Intensity (Fold) [1] | effect on VEGF-induced proliferation of RPMI8226 cells (RPMI8226 cells) | Cell number (Fold) (HUVECs [2]) | Tube length (Fold) (HUVECs [3]) | level of sprouting microvessels around the aortic ring (rat aortic ring) | effect on number of colonies on the surface of the lung / in vivo metastasis (B16-F10 melanoma cells) | No. lung colonies (B16-F10 melanoma cells) | Inhibition (%) (B16-F10 melanoma cells) | biological activity of the analogue relative to the 7-mer (summary statement of the description) (RPMI8226 cells)
1 | NH2-Asp-Ile-Tyr-Arg-Val-Pro-Ser-COOH (DIYRVPS; not fully specified (N-terminus, C-terminus); printed as NH2-Asp-Ile-Tyr-Arg-Val-Pro-Ser-COOH) [7-mer IP] | may significantly prevent | 0.38 ± 0.12 Fold | could sustain 7-mer bioactivity, only partly | 1.05 ± 0.067 Fold | 1.66 ± 0.20 Fold | inhibited | may suppress in vivo metastasis | 63 ± 9.4 | 72.0% | 
2 | NH2-Asp-Leu-Trp-Arg-Ile-Arg-Ser-COOH (DLWRIRS; not fully specified (N-terminus, C-terminus); printed as NH2-Asp-Leu-Trp-Arg-Ile-Arg-Ser-COOH) [7-mer WI] | may significantly prevent | 0.31 ± 0.085 Fold | could sustain 7-mer bioactivity, only partly | 0.91 ± 0.078 Fold | 1.23 ± 0.22 Fold | inhibited | may suppress in vivo metastasis | 74 ± 24.3 | 67.3% | 
3 | NH2-Asp-Leu-Tyr-Arg-Gln-Lys-Ser-COOH (DLYRQKS; not fully specified (N-terminus, C-terminus); printed as NH2-Asp-Leu-Tyr-Arg-Gln-Lys-Ser-COOH) [7-mer QK] | may significantly prevent | 0.31 ± 0.081 Fold | could sustain 7-mer bioactivity, only partly | 1.09 ± 0.067 Fold | 1.46 ± 0.31 Fold | inhibited | may suppress in vivo metastasis | 82 ± 16.3 | 63.5% | 
4 | NH2-Asp-Leu-Tyr-Arg-Leu-Arg-Ser-COOH (DLYRLRS; not fully specified (N-terminus, C-terminus); printed as NH2-Asp-Leu-Tyr-Arg-Leu-Arg-Ser-COOH) [7-mer (V→L)] | may significantly prevent | 0.33 ± 0.079 Fold | could sustain 7-mer bioactivity, only partly | 1.02 ± 0.049 Fold | 1.41 ± 0.37 Fold | inhibited | may suppress in vivo metastasis | 75 ± 30.4 | 66.8% | relatively the same bioactivity
5 | NH2-Asp-Leu-Tyr-Arg-Met-Lys-Ser-COOH (DLYRMKS; not fully specified (N-terminus, C-terminus); printed as NH2-Asp-Leu-Tyr-Arg-Met-Lys-Ser-COOH) [7-mer MK] | may significantly prevent | 0.37 ± 0.095 Fold | could sustain 7-mer bioactivity, only partly | 1.04 ± 0.062 Fold | 1.18 ± 0.31 Fold | inhibited | may suppress in vivo metastasis | 79 ± 26.4 | 65.0% | 
6 | NH2-Asp-Leu-Tyr-Arg-Val-Arg-(D-Ser)-COOH (H-DLYRVR[dS]-OH) [7-mer DS] |  | 0.96 ± 0.12 Fold |  | 1.59 ± 0.084 Fold | 3.45 ± 0.26 Fold | unaffected |  | 245 ± 30.4 | −9.0% | lose its biological activity
